The subject of assay [1] is P-P70S6K (T389). In words: Cell based AlphaLISA assay, inhibition of P-P70S6K (T389) (mTORC1 substrate phosphorylation) in MDA-MB-468 cells. The settings on record: Homo sapiens, 4 h, AlphaLISA, two to four hours at 37° C., read-out: pIC50 for Inhibition of mTORC1 and mTORC2 Substrate Phosphorylation, P-P70S6K-(T389) (converted). The method, boiled down:
(§1)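 Cells are exposed to inhibitor, then the assay buffer is taken off and kit lysis buffer added. Lysates undergo AlphaLISA SureFire Ultra detection in duplicate.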
Background: In Alpha technology, singlet oxygen from a donor bead excites a nearby acceptor bead.

Assay [2] has as its system P-4E-BP1 (T37/46). Kind of assay: Cell based AlphaLISA assay, inhibition of P-4E-BP1 (T37/46) (mTORC1 substrate phosphorylation) in MDA-MB-468 cells. The settings on record: Homo sapiens, MDA-MB-468, 4 h, AlphaLISA, two to four hours at 37° C., read-out: pIC50 for Inhibition of mTORC1 and mTORC2 Substrate Phosphorylation, P-4E-BP1-(T37/46) (converted). In a few lines: as §1

For assay [3], the system named is P-Akt (S473). Kind of assay: Cell based AlphaLISA assay, inhibition of P-Akt (S473) (mTORC2 substrate phosphorylation) in MDA-MB-468 cells. As to conditions: Homo sapiens, MDA-MB-468, 4 h, AlphaLISA, two to four hours at 37° C., read-out: pIC50 for Inhibition of mTORC1 and mTORC2 Substrate Phosphorylation, p-AKT 1/2/3 -(S473) (converted). In a few lines:
as §1

Turning to `CO[C@H]1C[C@@H]2CC[C@@H](C)[C@@](O)(O2)C(=O)C(=O)N2CCCC[C@H]2C(=O)O[C@H]([C@H](C)C[C@@H]2CC[C@H](n3cc(COC(=O)NCCOCCOCCOCCC(=O)NCCOCCOCCC(=O)NCCCCn4nc(-c5cc6cc(O)ccc6[nH]5)c5c(N)ncnc54)nn3)[C@H](OC)C2)CC(=O)[C@H](C)/C=C(\C)[C@@H](O)[C@@H](OC)C(=O)[C@H](C)C[C@H](C)/C=C/C=C/C=C/1C` [Example 121], the IC50 in assay [1] was 1 to 10 nM; in assay [2], 31.6 to 1000 nM; in assay [3], greater than 1000 nM.
In the case of `CO[C@H]1C[C@@H]2CC[C@@H](C)[C@@](O)(O2)C(=O)C(=O)N2CCCC[C@H]2C(=O)O[C@H]([C@H](C)C[C@@H]2CC[C@H](n3cc(COC(=O)NCCOCCOCCOCCC(=O)NCCOCCOCCOCCC(=O)NCCCCn4nc(-c5ccc6oc(N)nc6c5)c5c(N)ncnc54)nn3)[C@H](OC)C2)CC(=O)[C@H](C)/C=C(\C)[C@@H](O)[C@@H](OC)C(=O)[C@H](C)C[C@H](C)/C=C/C=C/C=C/1C` [Example 122], the results for the IC50 in assay [1], in assay [2] and in assay [3] were 1 to 10 nM, 3.16 to 31.6 nM and 3.16 to 31.6 nM, respectively.
For `CO[C@H]1C[C@@H]2CC[C@@H](C)[C@@](O)(O2)C(=O)C(=O)N2CCCC[C@H]2C(=O)O[C@H]([C@H](C)C[C@@H]2CC[C@H](n3cc(COC(=O)NCCOCCOCCOCCC(=O)NCCOCCOCCOCCC(=O)NCCCCn4nc(-c5cc6cc(O)ccc6[nH]5)c5c(N)ncnc54)nn3)[C@H](OC)C2)CC(=O)[C@H](C)/C=C(\C)[C@@H](O)[C@@H](OC)C(=O)[C@H](C)C[C@H](C)/C=C/C=C/C=C/1C` [Example 123], the IC50 in assay [1] was 1 to 10 nM; in assay [2], 3.16 to 31.6 nM; in assay [3], 31.6 to 1000 nM.
For `CO[C@H]1C[C@@H]2CC[C@@H](C)[C@@](O)(O2)C(=O)C(=O)N2CCCC[C@H]2C(=O)O[C@H]([C@H](C)C[C@@H]2CC[C@H](n3cc(COC(=O)NCCOCCOCCOCCC(=O)NCCOCCOCCOCCOCCC(=O)NCCCCn4nc(-c5ccc6oc(N)nc6c5)c5c(N)ncnc54)nn3)[C@H](OC)C2)CC(=O)[C@H](C)/C=C(\C)[C@@H](O)[C@@H](OC)C(=O)[C@H](C)C[C@H](C)/C=C/C=C/C=C/1C` [Example 124], in that order: 1 to 10 nM, 3.16 to 31.6 nM and 3.16 to 31.6 nM.
As to `CO[C@H]1C[C@@H]2CC[C@@H](C)[C@@](O)(O2)C(=O)C(=O)N2CCCC[C@H]2C(=O)O[C@H]([C@H](C)C[C@@H]2CC[C@H](n3cc(COC(=O)NCCOCCOCCOCCOCCC(=O)NCCOCCOCCOCCOCCC(=O)NCCCCn4nc(-c5ccc6oc(N)nc6c5)c5c(N)ncnc54)nn3)[C@H](OC)C2)CC(=O)[C@H](C)/C=C(\C)[C@@H](O)[C@@H](OC)C(=O)[C@H](C)C[C@H](C)/C=C/C=C/C=C/1C` [Example 125], the IC50 in assay [1] was 1 to 10 nM; in assay [2], 3.16 to 31.6 nM; in assay [3], 3.16 to 31.6 nM.
Consider `CO[C@H]1C[C@@H]2CC[C@@H](C)[C@@](O)(O2)C(=O)C(=O)N2CCCC[C@H]2C(=O)O[C@H]([C@H](C)C[C@@H]2CC[C@H](n3cc(COC(=O)NCCOCCOCCOCCC(=O)NCCOCCOCCOCCOCCC(=O)NCCCCn4nc(-c5cc6cc(O)ccc6[nH]5)c5c(N)ncnc54)nn3)[C@H](OC)C2)CC(=O)[C@H](C)/C=C(\C)[C@@H](O)[C@@H](OC)C(=O)[C@H](C)C[C@H](C)/C=C/C=C/C=C/1C` [Example 126], for which the IC50 was 1 to 10 nM in assay [1], 3.16 to 31.6 nM in assay [2] and 31.6 to 1000 nM in assay [3].
For `CO[C@H]1C[C@@H]2CC[C@@H](C)[C@@](O)(O2)C(=O)C(=O)N2CCCC[C@H]2C(=O)O[C@H]([C@H](C)C[C@@H]2CC[C@H](n3cc(COC(=O)NCCOCCOCCOCCOCCC(=O)NCCOCCOCCOCCOCCC(=O)NCCCCn4nc(-c5cc6cc(O)ccc6[nH]5)c5c(N)ncnc54)nn3)[C@H](OC)C2)CC(=O)[C@H](C)/C=C(\C)[C@@H](O)[C@@H](OC)C(=O)[C@H](C)C[C@H](C)/C=C/C=C/C=C/1C` [Example 127], in that order: 1 to 10 nM, 3.16 to 31.6 nM and 31.6 to 1000 nM.
Regarding `CO[C@H]1C[C@@H]2CC[C@@H](C)[C@@](O)(O2)C(=O)C(=O)N2CCCC[C@H]2C(=O)O[C@H]([C@H](C)C[C@@H]2CC[C@H](n3cc(CCCC(=O)NCCOCCOCCOCCC(=O)NCCOCCOCCC(=O)NCCCCn4nc(-c5ccc6oc(N)nc6c5)c5c(N)ncnc54)nn3)[C@H](OC)C2)CC(=O)[C@H](C)/C=C(\C)[C@@H](O)[C@@H](OC)C(=O)[C@H](C)C[C@H](C)/C=C/C=C/C=C/1C` [Example 128], the IC50 in assay [1] was 1 to 10 nM; in assay [2] it was 3.16 to 31.6 nM; in assay [3], 31.6 to 1000 nM.
As to `CO[C@H]1C[C@@H]2CC[C@@H](C)[C@@](O)(O2)C(=O)C(=O)N2CCCC[C@H]2C(=O)O[C@H]([C@H](C)C[C@@H]2CC[C@H](n3cc(CCCC(=O)NCCOCCOCCOCCC(=O)NCCOCCOCCC(=O)NCCCCn4nc(-c5cc6cc(O)ccc6[nH]5)c5c(N)ncnc54)nn3)[C@H](OC)C2)CC(=O)[C@H](C)/C=C(\C)[C@@H](O)[C@@H](OC)C(=O)[C@H](C)C[C@H](C)/C=C/C=C/C=C/1C` [Example 129], the IC50 in assay [1] was 1 to 10 nM; in assay [2] it was 31.6 to 1000 nM; in assay [3], greater than 1000 nM.
In the case of `CO[C@H]1C[C@@H]2CC[C@@H](C)[C@@](O)(O2)C(=O)C(=O)N2CCCC[C@H]2C(=O)O[C@H]([C@H](C)C[C@@H]2CC[C@H](n3cc(CCCC(=O)NCCOCCOCCOCCC(=O)NCCOCCOCCOCCC(=O)NCCCCn4nc(-c5ccc6oc(N)nc6c5)c5c(N)ncnc54)nn3)[C@H](OC)C2)CC(=O)[C@H](C)/C=C(\C)[C@@H](O)[C@@H](OC)C(=O)[C@H](C)C[C@H](C)/C=C/C=C/C=C/1C` [Example 130], the IC50 in assay [1] is 1 to 10 nM; in assay [2], 3.16 to 31.6 nM; in assay [3], 3.16 to 31.6 nM.
With `CO[C@H]1C[C@@H]2CC[C@@H](C)[C@@](O)(O2)C(=O)C(=O)N2CCCC[C@H]2C(=O)O[C@H]([C@H](C)C[C@@H]2CC[C@H](n3cc(CCCC(=O)NCCOCCOCCOCCC(=O)NCCOCCOCCOCCC(=O)NCCCCn4nc(-c5cc6cc(O)ccc6[nH]5)c5c(N)ncnc54)nn3)[C@H](OC)C2)CC(=O)[C@H](C)/C=C(\C)[C@@H](O)[C@@H](OC)C(=O)[C@H](C)C[C@H](C)/C=C/C=C/C=C/1C` [Example 131], the figures for the IC50 in assay [1], in assay [2] and in assay [3] were 1 to 10 nM, 31.6 to 1000 nM and 31.6 to 1000 nM, respectively.
As for `CO[C@H]1C[C@@H]2CC[C@@H](C)[C@@](O)(O2)C(=O)C(=O)N2CCCC[C@H]2C(=O)O[C@H]([C@H](C)C[C@@H]2CC[C@H](n3cc(CCCC(=O)NCCOCCOCCOCCC(=O)NCCOCCOCCOCCOCCC(=O)NCCCCn4nc(-c5ccc6oc(N)nc6c5)c5c(N)ncnc54)nn3)[C@H](OC)C2)CC(=O)[C@H](C)/C=C(\C)[C@@H](O)[C@@H](OC)C(=O)[C@H](C)C[C@H](C)/C=C/C=C/C=C/1C` [Example 132], the IC50 in assay [1] is 1 to 10 nM; in assay [2] it was 3.16 to 31.6 nM; in assay [3], 31.6 to 1000 nM.
As to `CO[C@H]1C[C@@H]2CC[C@@H](C)[C@@](O)(O2)C(=O)C(=O)N2CCCC[C@H]2C(=O)O[C@H]([C@H](C)C[C@@H]2CC[C@H](n3cc(CCCC(=O)NCCOCCOCCOCCC(=O)NCCOCCOCCOCCOCCC(=O)NCCCCn4nc(-c5cc6cc(O)ccc6[nH]5)c5c(N)ncnc54)nn3)[C@H](OC)C2)CC(=O)[C@H](C)/C=C(\C)[C@@H](O)[C@@H](OC)C(=O)[C@H](C)C[C@H](C)/C=C/C=C/C=C/1C` [Example 133], the IC50 is 1 to 10 nM in assay [1], 3.16 to 31.6 nM in assay [2] and 31.6 to 1000 nM in assay [3].
The like results for `CO[C@H]1C[C@@H]2CC[C@@H](C)[C@@](O)(O2)C(=O)C(=O)N2CCCC[C@H]2C(=O)O[C@H]([C@H](C)C[C@@H]2CC[C@H](n3cc(CCCC(=O)NCCOCCOCCOCCOCCC(=O)NCCOCCOCCOCCOCCC(=O)NCCCCn4nc(-c5ccc6oc(N)nc6c5)c5c(N)ncnc54)nn3)[C@H](OC)C2)CC(=O)[C@H](C)/C=C(\C)[C@@H](O)[C@@H](OC)C(=O)[C@H](C)C[C@H](C)/C=C/C=C/C=C/1C` [Example 134] were, in that order, 1 to 10 nM, 3.16 to 31.6 nM and 3.16 to 31.6 nM.
In the case of `CO[C@H]1C[C@@H]2CC[C@@H](C)[C@@](O)(O2)C(=O)C(=O)N2CCCC[C@H]2C(=O)O[C@H]([C@H](C)C[C@@H]2CC[C@H](n3cc(CCCC(=O)NCCOCCOCCOCCOCCC(=O)NCCOCCOCCOCCOCCC(=O)NCCCCn4nc(-c5cc6cc(O)ccc6[nH]5)c5c(N)ncnc54)nn3)[C@H](OC)C2)CC(=O)[C@H](C)/C=C(\C)[C@@H](O)[C@@H](OC)C(=O)[C@H](C)C[C@H](C)/C=C/C=C/C=C/1C` [Example 135], the IC50 in assay [1] is 1 to 10 nM; in assay [2] it was 3.16 to 31.6 nM; in assay [3], 31.6 to 1000 nM.
Take `CO[C@H]1C[C@@H]2CC[C@@H](C)[C@@](O)(O2)C(=O)C(=O)N2CCCC[C@H]2C(=O)O[C@H]([C@H](C)C[C@@H]2CC[C@H](n3cc(-c4cccc(C(=O)NCCOCCOCCOCCC(=O)NCCOCCOCCC(=O)NCCCCn5nc(-c6ccc7oc(N)nc7c6)c6c(N)ncnc65)c4)nn3)[C@H](OC)C2)CC(=O)[C@H](C)/C=C(\C)[C@@H](O)[C@@H](OC)C(=O)[C@H](C)C[C@H](C)/C=C/C=C/C=C/1C` [Example 136]: the figures for the IC50 in assay [1], in assay [2] and in assay [3] were 1 to 10 nM, 3.16 to 31.6 nM and 31.6 to 1000 nM, respectively.

(Values after patent US20230093861A1, “RAPAMYCIN ANALOGS AS MTOR INHIBITORS” (Revolution Medicines, Inc., priority 2017, published 2023).)
